Source: patent publication US8242110B2, “Use of antihistamine agents for the preventive or early treatment of inflammatory syndromes, in particular those triggered by togaviruses” (Pierre Fabre Medicament, priority 2006, dated 2012)

Test system: Chikungunya virus
Assay: Observational study of mequitazine in preventive and early treatment of inflammatory syndromes caused by the Chikungunya virus
Format: in vivo
Settings: patients
Procedure: Effect of Mequitazine on the Preventive and Early Treatment of Inflammatory Syndromes Caused by the Chikungunya Virus—Results of an Observational Study
104 patients were included in this observational study involving a limited number of doctors held secret: mean age 39.6 years, 61.9% female.
At the time of inclusion at D0, the patients were slightly feverish with a mean temperature of 38.4° C.
The patients consulted after various periods following the onset of hyperthermia, but generally 1.1 days after this onset, the phase preceding the onset of arthralgia.
During this first visit, the most painful joints were the fingers, wrists and ankles.
At this first visit on D0, the doctors gave mequitazine to the patients, possibly in combination with an anti-inflammatory.
A questionnaire was handed to each patient and completed with the patient.
This questionnaire included the content of 2 conventional questionnaires: • HAQ* questionnaire (Health Assessment Questionnaire) to assess the functional capacity of patients (function index) i.e. the handicap generated by the pathology; • A SF12** questionnaire to assess the quality of life of the patient using the SF12 score.
At D7 and D14 the patient again filled in these questionnaires.
At D28, at the time of a further consultation, these questionnaires were again updated. • HAQ: Bruce B and Fries J. The Stanford Health Assessment Questionnaire (HAQ): A review of its history, issues, progress and documentation. J. Rheumatol. 2003; 30(1):167-78. • SF12: Ware J Jr, Kosinski M, Keller S D. A 12-item Short-Form Health Survey: construction of scales and preliminary tests of reliability and validity. Med. Care 1996; 34:220-33.

c1ccc2c(c1)Sc1ccccc1N2CC1CN2CCC1CC2 (centres unmarked) [mequitazine]
handicap generated by the pathology (HAQ function index) (at D14, mequitazine given at D0): statistically significant improvement | handicap generated by the pathology (HAQ function index) (at D28, mequitazine given at D0): statistically significant improvement | number of painful joints (between D0 and D7, decrease continuing in time): significant decrease | influence of combining an anti-inflammatory with mequitazine on the SF12 physical score measuring quality of life (mequitazine combined with an anti-inflammatory): does not have an influence | physical recovery (SF12 scale and HAQ test) in relation to how early mequitazine is prescribed (the earlier a patient consults and mequitazine is prescribed): the more physical recovery is swift and extensive
